Measurements taken from patent publication US11656221B2, “Methods to identify modulators of actin-binding proteins” (Regents of the University of Minnesota, priority 2019, dated 2023).
“Also recorded” adds a separate entry of the source.

Key:
[1] = target: T1, ternary complex consisting of GFP-ABD-L253P, Lifeact-mCherry, and actin (Homo sapiens, UniProt O15020, L253P); test: Primary live-cell time-resolved FRET assay (GFP-ABD-L253P plus Lifeact-mCherry); format: cell-based; conditions: for effect on FRET in primary screen (Hit, 4SD threshold): LOPAC compounds 10 μM, 120 min
T1 construct: L252P β-III-spectrin (human) ABD residues 1-284; expressed in transfected cells; host or cells: HEK293-6E, pTT5 vector, transient
T1 sequence (O15020 1-284 L253P, one chain of several): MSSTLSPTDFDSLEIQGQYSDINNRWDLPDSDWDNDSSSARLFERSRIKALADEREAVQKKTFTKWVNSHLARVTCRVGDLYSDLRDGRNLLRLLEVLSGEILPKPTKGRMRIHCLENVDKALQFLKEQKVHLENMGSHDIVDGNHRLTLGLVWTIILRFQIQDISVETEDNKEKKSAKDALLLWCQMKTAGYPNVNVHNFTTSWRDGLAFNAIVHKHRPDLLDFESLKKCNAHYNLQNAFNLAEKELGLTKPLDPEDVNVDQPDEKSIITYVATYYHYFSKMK

HEK293-6E cells = test: Trypan blue cell viability assay; format: cell-based
Description: HEK293-6E cell viability was measured using trypan blue (0.03%) staining and a Countess Automated Cell counter (Invitrogen). Non-transfected HEK293-6E cells were spun at 100×g for 5 min at 21° C., and resuspended in 10 mL of PBS. The centrifugation and resuspension were repeated twice more. Final cell concentration was 1×10^6 cells/mL. Cells were incubated with 2% DMSO, or 3-50 μM compound (as indicated) for 3 hrs at room temperature (21° C.). After addition of 100 μL of 0.06% trypan blue solution in PBS, 10 μL was loaded on a slide and injected into the cell counter, and cell viability was measured.

mammalian cells = conditions: cited from earlier work
[2] = target: T2, Lifeact-mCherry binding to F-actin (Oryctolagus cuniculus, UniProt P68135); test: F-actin and Lifeact-mCherry co-sedimentation assay; design: species or system New Zealand white rabbit (Oryctolagus cuniculus)
T2 construct: Actin was purified from acetone powder derived from the psoas muscle; made in house; host or cells: actin from rabbit psoas muscle; Lifeact-mCherry from E. coli, pE-SUMOpro
Description: (§1) Actin was purified from acetone powder derived from the psoas muscle of New Zealand white rabbit (Oryctolagus cuniculus). Filamentous (F)-actin was stored for up to 3 days on ice before use in binding assays. Within an hour of the binding assay, the F-actin was clarified at 100,000×g at 4° C. for 10 min prior to setting up binding assays. The L253P β-III-spectrin ABD was expressed in E. coli BL21(DE3) (Novagen). The ABD was purified and the His-SUMO tag proteolytically removed, as previously described, except size-exclusion chromatography was not performed due to the high purity of the ABD protein. Lifeact-mCherry protein was similarly prepared. A Bradford assay was performed to determine clarified F-actin and ABD protein concentrations.
(§2) F-actin and ABD binding assays were performed as previously described. In brief, binding assays used 1 μM ABD protein, 1 μM F-actin and 1-50 μM compound (as indicated) or DMSO control for a total reaction volume of 60 μL in F-buffer containing 10 mM Tris, pH 7.5, 150 mM NaCl, 0.5 mM ATP, 2 mM MgCl2, and 1 mM DTT. Following 30 min incubation at room temperature (21° C.). F-actin was pelleted using centrifugation at 100,000×g at 25° C. for 30 min. Unbound ABD in the supernatant was measured following SDS-PAGE and Coomassie blue staining in accord. In addition, control co-sedimentations assays that lacked actin were performed to test if compounds cause ABD aggregation. F-actin and Lifeact-mCherry binding assays were undertaken with 2 μM Lifeact-mCherry, 30 μM F-actin and 1-50 μM compound (as indicated) or DMSO control for a total reaction volume of 80 μL in F-buffer. For a no-actin binding control, an assay sample with no F-actin was also set up. Binding reactions were allowed to reach equilibrium at room temperature (21° C.) for 30 min and then F-actin was pelleted by centrifugation at 100,000×g at 25° C. for 30 min. The amount of unbound Lifeact-mCherry was sampled by loading 7 μL of spin supernatant on a low volume black bottom 384-well plate (Greiner). Amount of mCherry was determined by acquiring fluorescence spectrum peak intensity at ˜600 nm using a spectral unmixing plate reader (Fluorescence Innovations, Inc) equipped with a 532 nm laser (Laserglow Technologies, Ontario, Canada) for excitation, 532 nm longpass filter for emission, and PMT for emission detection. The fraction of Lifeact-mCherry bound to F-actin was determined by subtracting from one the fraction of supernatant fluorescence intensity relative to the no-actin control sample, using the following equation:
[formula] • Where Fcontrol/DMSO is the peak mCherry fluorescence of assay samples containing compound or DMSO control, and Fno-actin is the peak mCherry fluorescence of assay samples that contained no F-actin. 2.9 Trypan Blue Cell Viability Assays

ABD-L253P = target: T3, ABD-L253P (Homo sapiens, UniProt O15020, L253P); test: Sedimentation of ABD L253P without actin (aggregation); conditions: 10 μM
T3 construct: His-SUMO (cleaved yes); made in house; host or cells: E. coli BL21(DE3), pE-SUMOpro
T3 sequence (O15020 1-284 L253P): as the sequence (O15020 1-284 L253P, one chain of several) above
Description: as §2, with “equation: […]” for “equation:”
In addition to a reduction in cell viability, the primary and counter screen may be sensitive to compounds that promote ABD-L253P protein aggregation. […] Our ABD-L253P to actin co-sedimentation assay is unlikely to be sensitive to ABD aggregation, as it is set up to monitor maximal sedimentation of ABD-L253P with actin at ˜90% ABD-L253P co-sedimenting. To directly measure the impact of 10 μM Hit compounds on ABD aggregation, we repeated the ABD-actin co-sedimentation without actin present.

[3] = target: T4, ABD-L253P (L253P β-III-spectrin ABD) binding to F-actin (Homo sapiens, UniProt O15020, L253P); test: F-actin and ABD co-sedimentation assay; conditions: 50 μM, 1 μM ABD, 1 μM F-actin
T4 construct: His-SUMO (cleaved yes); made in house; host or cells: E. coli BL21(DE3), pE-SUMOpro; actin from rabbit psoas muscle
T4 sequence (O15020 1-284 L253P): as the sequence (O15020 1-284 L253P, one chain of several) above
Description: as §1
as §2, with “F-actin and Lifeact-mCherry binding assays were undertaken with 2 μM Lifeact-mCherry, 30 μM F-actin and 1-50 μM compound (as indicated) or DMSO control for a total reaction volume of 80 μL in F-buffer. For a no-actin binding control, an assay sample with no F-actin was also set up. Binding reactions were allowed to reach equilibrium at room temperature (21° C.) for 30 min and then F-actin was pelleted by centrifugation at 100,000×g at 25° C. for 30 min. The amount of unbound Lifeact-mCherry was sampled by loading 7 μL of spin supernatant on a low volume black bottom 384-well plate (Greiner).” left out, “equation: […]” for “equation:”

[4] = target: T5, GFP-ABD-L253P and mCherry (non-specific FRET) in HEK293-6E cells (Homo sapiens, UniProt O15020, L253P); test: Counter FRET assay, non-specific FRET (GFP-ABD-L253P plus mCherry); format: cell-based; conditions: 0.1% Triton X-100, cell lysis
T5 construct: L252P β-III-spectrin (human) ABD residues 1-284; expressed in transfected cells; host or cells: HEK293-6E, pTT5 vector, transient
T5 sequence (O15020 1-284 L253P): as the sequence (O15020 1-284 L253P, one chain of several) above
Description: At 2×10^6 cells/mL, HEK293-6E cells were transfected with GFP-ABD (2.4 μg), Lifeact-mCherry (2.4-16.8 μg), mCherry (1.2-16.8 μg), and/or pTT5 (0.8-17.6 μg) using the 293fectin protocol (Thermo Fisher Scientific) with 20 μg total DNA. The cells were harvested 24 hours later by centrifugation at 100×g for 5 min, and then washed twice with PBS. Cell viability and concentration were determined using trypan blue assay and a Countess cell counter (Invitrogen).
Using a Multidrop Combi liquid dispenser (Thermo Fisher Scientific), 10^6 cells/mL were dispersed into 1536-well and 384-well plates as 5 or 50 μL aliquots, respectively. For control and tool compound plates, 100 nL of DMSO or potential tool compound was loaded using the Mantis (Formulatrix). […] Two to three hours after sample loading, fluorescence lifetime measurements were performed using high-throughput fluorescence plate-readers provided by Photonic Pharma LLC (MN, USA), including one detecting fluorescence lifetime and another detecting fluorescence spectra, as described previously.
To develop a biosensor that monitors the binding of mutant L253P β-III-spectrin to actin filaments in live cells, a fluorescence resonance energy transfer (FRET) approach was tested. […] To measure the non-specific component to our FRET readout, we concurrently tested expression of mCherry in place of Lifeact-mCherry. […]

effect on FRET in primary screen (Hit, 4SD threshold) [1]	Compound	effect on Lifeact-mCherry binding with actin ([2]; 10 μM)	ABD L253P aggregation (pelleting without actin) (ABD-L253P)	further results
decrease FRET	CCCCCCCCCCCCCCCC(=O)OC(CC(=O)[O-])C[N+](C)(C)C (racemic) [palmitoyl-DL-carnitine]	decreased actin-Lifeact co-sedimentation; also recorded: reduce Lifeact-mCherry binding with actin		effect on HEK293-6E cell viability (HEK293-6E cells; 10 μM, 3 hr incubation): dramatically reduced cell viability; also recorded: reduces HEK293-6E cell viability; reported effect on cell viability (mammalian cells): reported to reduce cell viability
decrease FRET	CC(C)(C)c1ccc(/C=C/C(=O)Nc2ccc3c(c2)OCCO3)cc1 [AMG 9810]		increases ABD pelleting; also recorded: promote aggregation	
decrease FRET	CC(C)(Sc1ccc(CCN(CCCCC2CCCCC2)C(=O)NC2CCCCC2)cc1)C(=O)O [GW7647]	decreased actin-Lifeact co-sedimentation; also recorded: reduce Lifeact-mCherry binding with actin	increases ABD pelleting; also recorded: promote aggregation	effect on HEK293-6E cell viability (HEK293-6E cells; 10 μM, 3 hr incubation): dramatically reduced cell viability; also recorded: reduces HEK293-6E cell viability
decrease FRET	O=C(O)c1cc([N+](=O)[O-])ccc1NCCCc1ccccc1 [NPPB]	decreased actin-Lifeact co-sedimentation; also recorded: reduce Lifeact-mCherry binding with actin	promote aggregation	ABD L253P aggregation (pelleting without actin) (ABD-L253P; listed as NBBP): increases ABD pelleting
decrease FRET	CCCc1c(-c2ccc(O)cc2)nn(-c2ccc(O)cc2)c1-c1ccc(O)cc1 [PPT]		increases ABD pelleting; also recorded: promote aggregation	
	[H]/N=C(/NCCCCC)N/N=C/c1c[nH]c2ccc(OC)cc12 [tegaserod]			reduction of total FRET ([1]; 50 μM, HEK293-6E cells, relative to DMSO): 83%; decrease in cell viability (HEK293-6E cells; 50 μM, 3 hrs): 92%; effect on HEK293-6E cell viability (HEK293-6E cells; 50 μM, 3 hrs): greatly diminished cell viability; also recorded: abolishes HEK293-6E cell viability; effect on Lifeact-mCherry binding with actin ([2]; 50 μM): did not alter and not; effect on ABD-L253P binding to actin [3]: did not alter; also recorded: no significant effect
	Triton X-100			effect on total FRET ([1]; 0.1% Triton X-100, cell lysis): abolished; effect on non-specific FRET [4]: abolished

Compound	effect on FRET in primary screen (Hit, 4SD threshold) [1]	effect on Lifeact-mCherry binding with actin ([2]; 10 μM)	ABD L253P aggregation (pelleting without actin) (ABD-L253P)	further results
CCCCCCCC/C=C\CCCCCCCC(=O)NCc1ccc(O)c(OC)c1 [olvanil]	decrease FRET		increases ABD pelleting; also recorded: promote aggregation	
